Experimental data: the NIST ThermoML archive (doi:10.1021/acs.jced.7b00840)
± gives the expanded uncertainty stated by the source.

Conditions: Crystal; visual observation

Compound	Triple point temperature
Nc1ccccc1I [2-iodoaniline]	325.7 ± 1.2 K
Nc1ccc(I)cc1 [4-iodoaniline]	332.35 ± 0.87 K
